Here are results for 12 molecules from ChEMBL document CHEMBL1201862, “PubChem BioAssay data set” (2004).

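Values below derive from 48-hour exposures of cells grown in 96-well plates, with endpoints linearly interpolated between the two concentrations bracketing the appropriate inhibition level. At the GI50, growth is halved.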 The source made the active and inactive calls. Rule as the data show it: active = GI50 up to about 1.1 µM and inactive = higher. Some results are limits rather than exact numbers.

Test systems include 786-0; CAKI-1; CCRF-CEM; EKVX; HCT-15; HOP-18; HT-29; IGROV-1; MOLT-4; NCI-H460; OVCAR-4; OVCAR-8; SF-539; SNB-19; TK-10; UO-31.
Holding throughout (test): inhibition of tumour cell growth, NCI panel, 48 h

Turning to `CC(=O)OC1CC2C(C)(C)C(=O)C=C[C@]2(C)C2CCC3(C)C(=CCC3[C@H](CO)C[C@H](O)C(=O)C(C)(C)O)[C@]12C` (some centres undefined), the GI50 was 19.7 µM (inactive) with 786-0; 15.9 µM (inactive) with CAKI-1; 17.9 µM (inactive) with CCRF-CEM; 20.3 µM (inactive) with EKVX; 17.8 µM in the experiment on HCT-15; 54.1 µM (inactive) in the experiment on HOP-18. Moreover, the GI50 was 13.8 µM (inactive) in the experiment on HT-29; 21.5 µM (inactive) in the experiment on IGROV-1; 22.6 µM (inactive) in the experiment on MOLT-4; 16.6 µM (inactive) in the experiment with NCI-H460; 59.8 µM (inactive) in the experiment with OVCAR-4; 17.3 µM (inactive) with OVCAR-8. Also, the GI50 with SF-539 was 18.7 µM (inactive); in the experiment on SNB-19, 31.7 µM (inactive); with TK-10, 26.5 µM (inactive); in the experiment with UO-31, 23.7 µM (inactive).

In the case of `O=C1CCCCC12CCC/C2=N\O` (centres undefined), the GI50 with 786-0 is > 100 µM (inactive); in the experiment with CAKI-1, > 100 µM (inactive); in the experiment with CCRF-CEM, > 100 µM (inactive); with EKVX it was > 100 µM (inactive); in the experiment with HCT-15, above 100 µM; in the experiment with HOP-18, > 100 µM (inactive). Further, the GI50 with IGROV-1, in the experiment on MOLT-4, with NCI-H460, in the experiment on OVCAR-4, in the experiment on OVCAR-8 and in the experiment with SF-539 was > 100 µM (inactive) each time. Besides, the GI50 in the experiment with SNB-19, in the experiment on TK-10 and in the experiment with UO-31 was > 100 µM (inactive) each time.

Regarding `O=C(O)CCNCCCCNCCC(=O)O`, the GI50 is > 100 µM (inactive) with 786-0; > 100 µM (inactive) with CAKI-1; > 100 µM (inactive) in the experiment with CCRF-CEM; > 100 µM (inactive) in the experiment on EKVX; above 100 µM in the experiment with HCT-15; > 100 µM (inactive) in the experiment with HOP-18. Further, the GI50 in the experiment with HT-29, with IGROV-1, in the experiment with MOLT-4, in the experiment on NCI-H460, in the experiment on OVCAR-4 and with OVCAR-8 was > 100 µM (inactive) each time. In addition, the GI50 in the experiment on SF-539, in the experiment on SNB-19 and in the experiment with TK-10 was > 100 µM (inactive) in each case.

For the molecule `NC(CCCNCc1ccccc1)C(=O)O` (centres undefined), the GI50 is > 100 µM (inactive) in the experiment on 786-0; > 100 µM (inactive) with CAKI-1; > 100 µM (inactive) in the experiment with CCRF-CEM; > 100 µM (inactive) in the experiment on EKVX; above 100 µM with HCT-15; > 100 µM (inactive) with HOP-18. For the same molecule, the GI50 in the experiment on HT-29, with IGROV-1, in the experiment with MOLT-4, in the experiment on NCI-H460, with OVCAR-4 and in the experiment on OVCAR-8 was > 100 µM (inactive) throughout. Moreover, the GI50 in the experiment on SF-539, in the experiment with SNB-19, in the experiment on TK-10 and in the experiment on UO-31 was > 100 µM (inactive) throughout.

Regarding `CCCCCCCCCCCc1cc(=O)c2c(O)cccc2o1`, the GI50 in the experiment on 786-0 was > 100 µM (inactive); with CAKI-1, > 100 µM (inactive); in the experiment on CCRF-CEM it was 20.3 µM (inactive); in the experiment with EKVX it was 56.1 µM (inactive); with HCT-15, 54.8 µM; in the experiment with HOP-18, > 100 µM (inactive). Moreover, the GI50 was 53.7 µM (inactive) in the experiment with HT-29; > 100 µM (inactive) in the experiment with IGROV-1; 30.3 µM (inactive) with MOLT-4; 79.1 µM (inactive) in the experiment on NCI-H460; > 100 µM (inactive) in the experiment on OVCAR-4; > 100 µM (inactive) in the experiment with OVCAR-8. For the same molecule, the GI50 in the experiment on SF-539, in the experiment on SNB-19, with TK-10 and in the experiment on UO-31 was > 100 µM (inactive) in each case.

As for `CCOP(=O)(OCC)C(C(=O)OC)C(=O)C(=O)Nc1ccc(Cl)cc1Cl` (centres undefined), the GI50 in the experiment with 786-0 is > 100 µM (inactive); in the experiment on CAKI-1, > 100 µM (inactive); in the experiment on CCRF-CEM it was > 100 µM (inactive); in the experiment on EKVX it was > 100 µM (inactive); in the experiment with HCT-15 it was above 100 µM; in the experiment with HOP-18 it was 24 µM (inactive). Moreover, the GI50 in the experiment on HT-29, in the experiment with IGROV-1, with MOLT-4, with NCI-H460, in the experiment on OVCAR-4 and in the experiment on OVCAR-8 was > 100 µM (inactive) throughout. Also, the GI50 with SF-539, with SNB-19, in the experiment on TK-10 and in the experiment with UO-31 was > 100 µM (inactive) throughout.

As for `COc1ccc(C(=O)C=C2NCCN2)cc1`, the GI50 with 786-0, in the experiment with CAKI-1, in the experiment on CCRF-CEM, in the experiment on EKVX, with HOP-18 and in the experiment on HT-29 was > 100 µM (inactive) in each case. Besides, the GI50 in the experiment with IGROV-1, in the experiment with MOLT-4, in the experiment on NCI-H460, in the experiment with OVCAR-4, in the experiment on OVCAR-8 and in the experiment on SF-539 was > 100 µM (inactive) throughout. The GI50 with SNB-19, in the experiment on TK-10 and in the experiment with UO-31 was > 100 µM (inactive) each time.

Take `CCOC1=C2N=C(Cc3ccccc3F)N=C2C(=O)c2ccccc21`: the GI50 with 786-0 was > 100 µM (inactive); with CAKI-1, > 100 µM (inactive); in the experiment on CCRF-CEM it was > 100 µM (inactive); in the experiment on EKVX, > 100 µM (inactive); in the experiment with HCT-15 it was above 100 µM; with HOP-18 it was > 100 µM (inactive). Moreover, the GI50 with HT-29, in the experiment on MOLT-4, in the experiment on NCI-H460, with OVCAR-4, in the experiment with OVCAR-8 and with SF-539 was > 100 µM (inactive) throughout. Further, the GI50 in the experiment with SNB-19 and in the experiment with UO-31 was > 100 µM (inactive) throughout.

Take `COc1ccc(Nc2nc3cc(C(F)(F)F)ccc3nc2-c2ccccc2)cc1OC`: the GI50 is 41.8 µM (inactive) in the experiment with 786-0; 31.5 µM (inactive) in the experiment on CAKI-1; 82.6 µM (inactive) in the experiment with CCRF-CEM; 17.3 µM (inactive) in the experiment on EKVX; 64.4 µM in the experiment on HCT-15; < 0.01 µM (active) in the experiment on HOP-18. Moreover, the GI50 is 46.7 µM (inactive) in the experiment with HT-29; 24.9 µM (inactive) in the experiment with IGROV-1; > 100 µM (inactive) in the experiment with MOLT-4; 27.7 µM (inactive) in the experiment with NCI-H460; 24 µM (inactive) in the experiment with OVCAR-4; 25.8 µM (inactive) in the experiment on OVCAR-8. Further, the GI50 with SF-539 was 39.5 µM (inactive); with TK-10, 15 µM (inactive); with UO-31 it was 11.8 µM (inactive).

For the molecule `CC(=O)OCC1OC(OC2CC3C(C)(C)C(O)CC[C@]3(C)C3CCC45CC4(CC[C@H]5C(C)CC(O)C4OC4(C)C)[C@]23C)C(O)C(O)C1O` (some centres undefined), the GI50 with 786-0 was 7.57 µM (inactive); in the experiment on CAKI-1, 8.87 µM (inactive); in the experiment with CCRF-CEM, 1.56 µM (inactive); with EKVX, 8.61 µM (inactive); in the experiment with HCT-15 it was 8.45 µM; with HOP-18, 7.08 µM (inactive). For the same molecule, the GI50 with HT-29 was 8.38 µM (inactive); in the experiment with IGROV-1, 0.966 µM (active); with MOLT-4, 0.701 µM (active); with NCI-H460 it was 8.91 µM (inactive); in the experiment on OVCAR-4, 8.73 µM (inactive); in the experiment on OVCAR-8 it was 6.89 µM (inactive). The GI50 was 7.98 µM (inactive) in the experiment on SF-539, 8 µM (inactive) in the experiment with SNB-19, 8.73 µM (inactive) in the experiment with TK-10 and 8.51 µM (inactive) with UO-31.

With `O=C1c2ccccc2C(=O)C1C(c1ccc(F)cc1)C1C(=O)c2ccccc2C1=O`, the GI50 is > 100 µM (inactive) with 786-0; > 100 µM (inactive) with CAKI-1; 43 µM (inactive) in the experiment on CCRF-CEM; > 100 µM (inactive) with EKVX; above 100 µM with HCT-15; > 100 µM (inactive) in the experiment with HOP-18. Besides, the GI50 with HT-29 is > 100 µM (inactive); in the experiment with MOLT-4, 59.4 µM (inactive); with NCI-H460, > 100 µM (inactive); in the experiment on OVCAR-4, > 100 µM (inactive); with OVCAR-8 it was > 100 µM (inactive); in the experiment on SF-539, > 100 µM (inactive). For the same molecule, the GI50 in the experiment on SNB-19, in the experiment with TK-10 and with UO-31 was > 100 µM (inactive) throughout.

As to `CC1=Nn2c(nnc2-c2ccc(N)cc2)NC(C)(C)C1`, the GI50 in the experiment with 786-0 is > 100 µM (inactive); in the experiment on CAKI-1 it was > 100 µM (inactive); in the experiment with CCRF-CEM, > 100 µM (inactive); with EKVX it was > 100 µM (inactive); in the experiment with HCT-15, above 100 µM; in the experiment with HOP-18 it was > 100 µM (inactive). In addition, the GI50 in the experiment with HT-29, in the experiment with IGROV-1, in the experiment on MOLT-4, in the experiment with NCI-H460, with OVCAR-4 and with SF-539 was > 100 µM (inactive) each time. In addition, the GI50 in the experiment with SNB-19, with TK-10 and in the experiment on UO-31 was > 100 µM (inactive) each time.
